Experiments:
IDO1 [1] = biological target: T1, IDO1 (Homo sapiens, UniProt P14902); assay: IDO1 Cellular Assay in HeLa Cells Stimulated with IFNγ; format: cell-based; conditions: read-out: HeLa Cell Potency, IC50
IDO1 [2] = biological target: T1, IDO1; assay: IDO1 Human Whole blood Assay; format: cell-based; parameters: Human whole blood was drawn in sodium heparin coated tubes from healthy internal donors; from tissue; host or cells: human whole blood from healthy donors, stimulated with LPS and IFNγ; conditions: LPS and IFNγ stimulated, 18 h, read-out: Human Whole Blood Potency, IC50
Description: IDO1Human Whole blood Assay
Compounds to be tested were serially diluted in ten 3-fold steps in DMSO starting from 10 mM. 3 μL of compound dilutions or DMSO alone were then dispensed from the dilution plate into a polypropylene 96-well assay plate containing 97 μL of RPMI medium using an Echo 555 acoustic liquid handler (Labcyte). LPS and IFNγ was prepared in RPMI medium to a 10× of final conc. (1000 ng/mL), final concentration is 100 ng/mL.
Human whole blood was drawn in sodium heparin coated tubes from healthy internal donors. 240 μL of blood was transferred to each of the wells of a v-bottom 96 well plate. 30 μL of compound was transferred from intermediate dilution plate, and incubated for 15 min. 30 μL from stimulants was then transferred to blood and mixed thoroughly. Plate was covered with breathable membrane and incubated at 37° C. for overnight (18 h).
On day 2, isotope labeled standard solutions of kynurenine and tryptophan was made in water at 10× concentration and 30 μL was added to the blood at 3 μM final concentration. The assay plates were centrifuged at 300×G for 10 min with no brake to separate plasma from red blood cells. 60 μL of plasma samples was removed without disturbing red blood cells. Plasma was diluted with RPMI in 1:1 ratio and proteins were precipitated out with two volumes of Acetonitrile. The plates were centrifuged at 4000×G for 60 min. 20 μL of supernatant was carefully transferred to a 384 well plate containing 40 μL of 0.1% formic acid in water and analyzed by LC/MS/MS.
LC/MS/MS analyses were performed using Thermo Fisher's LX4-TSQ Quantum Ultra system. This system consists of four Agilent binary high-performance liquid chromatography (HPLC) pumps and a TSQ Quantum Ultra triple quadrupole MS/MS instrument. For each sample, 5 μL were injected onto an Atlantis T3 column (2.1 mm×150 mm, 3 μm particle size) from Waters. The mobile phase gradient pumped at 0.8 mL/min was used to elute the analytes from the column at 25° C. The elution started at 0% B increasing linearly to 25% B at 6.5 min, holding at 25% for 1 min, re-equilibrating to 10 min. Mobile phase A consisted of 0.1% formic acid in water. Mobile phase B consisted of 0.1% of formic acid in acetonitrile. Data were acquired in positive mode using a HESI interface. The operational parameters for the TSQ Quantum Ultra instrument were a spray voltage of 4000 V, capillary temperature of 380° C., vaporizer temperature 400° C., shealth gas 60 arbitrary units, Aux gas 20 arbitrary units, tube lens 85 and collision gas 1.2 mTorr. SRM chromatograms of kynurenine (Q1: 209.2>Q3:94.0) and internal standard (Q1: 215.3>Q3:98.2) were collected for 90 sec. The peak area was integrated by Xcalibur Quan software. The ratios between the kynurenine generated in the reaction and 2D6-Kynurenine spiked-in internal standard were used to generate percentage inhibition and IC50 values. Compounds were titrated and IC50's were calculated by 4 parameter sigmoidal curve fitting formula.

T1 sequence (P14902 whole entry): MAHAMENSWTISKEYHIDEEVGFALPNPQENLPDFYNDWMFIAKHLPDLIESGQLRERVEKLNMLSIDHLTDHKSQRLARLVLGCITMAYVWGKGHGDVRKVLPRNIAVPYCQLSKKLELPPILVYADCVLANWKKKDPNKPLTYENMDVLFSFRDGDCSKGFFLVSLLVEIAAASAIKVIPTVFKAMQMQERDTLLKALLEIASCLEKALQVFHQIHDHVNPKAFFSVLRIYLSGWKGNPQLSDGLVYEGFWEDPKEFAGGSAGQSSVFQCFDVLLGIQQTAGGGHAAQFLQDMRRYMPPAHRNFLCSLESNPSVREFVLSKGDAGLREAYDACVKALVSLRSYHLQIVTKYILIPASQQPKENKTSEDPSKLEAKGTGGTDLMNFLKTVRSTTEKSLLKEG

IC50 (IDO1 [1]) | IC50 (IDO1 [2]) | SMILES
3.08 nM | 311 nM | Cc1cccc(N2CCN(C(=O)Cn3nc(C(=O)N4CCC(n5ncnn5)CC4)c4c3CCC4)CC2)c1C [Example 129, 1-[4-(2,3-dimethylphenyl)piperazin-1-yl]-2-{3-[4-(2H-tetrazol-2-yl)piperidine-1-carbonyl]-2,6-dihydrocyclopenta[c]pyrazol-1(4H)-yl}ethan-1-one]
1.52 nM | 44 nM | Cc1cccc(N2CCN(C(=O)Cn3nc(C(=O)N4CCC(F)(CO)CC4)c4c3C[C@H]3C[C@@H]43)CC2)c1C [Example 286, 1-[4-(2,3-dimethylphenyl)piperazin-1-yl]-2-{(3bR,4aR)-3-[4-fluoro-4-(hydroxymethyl)piperidine-1-carbonyl]-3b,4,4a,5-tetrahydro-1H-cyclopropa[3,4]cyclopenta[1,2-c]pyrazol-1-yl}ethan-1-one]
3.21 nM | 2710 nM | Cc1cccc(N2CCN(C(=O)Cn3nc(C(=O)N4CCC(O)CC4)c4c3CCC4)C3(CC3)C2)c1C [compound 392]
21.4 nM | 102 nM | Cc1c(F)cccc1N1CCN(C(=O)Cn2nc(C(=O)N3CCC(OCCO)CC3)c3c2CCC3)CC1 [Example 456, 1-(4-(3-fluoro-2-methylphenyl)piperazin-1-yl)-2-(3-(4-(2-hydroxyethoxy)piperidine-1-carbonyl)-5,6-dihydrocyclopenta[c]pyrazol-1(4H)-yl) ethanone]
0.94 nM | 829 nM | Cc1cccc(N2CCN(C(=O)Cn3nc(C(=O)N4CCN(C(=O)CO)CC4)c4c3C[C@H]3C[C@@H]43)C3(CC3)C2)c1C [Example 355, 1-(4-((3bR,4aR)-1-(2-(7-(2,3-dimethylphenyl)-4,7-diazaspiro[2.5]octan-4-yl)-2-oxoethyl)-3b,4,4a,5-tetrahydro-1H-cyclopropa[3,4]cyclopenta[1,2-c]pyrazole-3-carbonyl)piperazin-1-yl)-2-hydroxyethanone]
1.71 nM | 100 nM | Cc1cccc(N2CCN(C(=O)Cn3nc(C(=O)N4CC[C@@H](O)[C@@H](F)C4)c4c3C[C@H]3C[C@@H]43)CC2)c1C [Example 288, 1-[4-(2,3-dimethylphenyl)piperazin-1-yl]-2-{(3bR,4aR)-3-[(3S,4R)-3-fluoro-4-hydroxypiperidine-1-carbonyl]-3b,4,4a,5-tetrahydro-1H-cyclopropa[3,4]cyclopenta[1,2-c]pyrazol-1-yl}ethan-1-one]
2.79 nM | 212 nM | Cc1cccc(N2CCN(C(=O)Cn3nc(C(=O)N4CC[C@H](O)[C@@H](F)C4)c4c3C[C@H]3C[C@@H]43)CC2)c1C [Example 291, 1-[4-(2,3-dimethylphenyl)piperazin-1-yl]-2-{(3bR,4aR)-3-[(3S,4S)-3-fluoro-4-hydroxypiperidine-1-carbonyl]-3b,4,4a,5-tetrahydro-1H-cyclopropa[3,4]cyclopenta[1,2-c]pyrazol-1-yl}ethan-1-one]
5.03 nM | 813 nM | Cc1cccc(N2CCN(C(=O)Cn3nc(C(=O)N4CCC(OCCO)CC4)c4c3C[C@H]3C[C@@H]43)[C@H]3CCC[C@@H]32)c1C (racemic) [Example 326, 1-[rac-(4aS,7aS or 4aR,7aR)-1-(2,3-dimethylphenyl)-3,4a,5,6,7,7a-hexahydro-2H-cyclopenta[b]pyrazin-4-yl]-2-[(2R,4R)-9-[4-(2-hydroxyethoxy)piperidine-1-carbonyl]-7,8-diazatricyclo[4.3.0.02,4]nona-1(6),8-dien-7-yl]ethanone]
1.38 nM | 135 nM | Cc1c(F)ccc(N2CCN(C(=O)Cn3nc(C(=O)N4CCC(O)CC4(C)C)c4c3CCCC4)CC2)c1C (stereo not shown) [Example 464, 1-(4-(4-fluoro-2,3-dimethylphenyl)piperazin-1-yl)-2-(3-(4-hydroxy-2,2-dimethyl-piperidine-1-carbonyl)-4,5,6,7-tetrahydro-1H-indazol-1-yl)ethanone]
7.15 nM | 137 nM | Cc1cccc(N2CCN(C(=O)Cn3nc(C(=O)N4CCC(NC(=O)CCO)CC4)c4c3CCCC4)CC2)c1C [Example 478, N-(1-(1-(2-(4-(2,3-dimethylphenyl)piperazin-1-yl)-2-oxoethyl)-4,5,6,7-tetrahydro-1H-indazol-3-carbonyl)piperidin-4-yl)-3-hydroxypropanamide]
7.61 nM | 971 nM | Cc1cccc(N2CCN(C(=O)Cn3nc(C(=O)N4CCC(O)C(F)C4)c4c3CCC4)C3(CC3)C2)c1C (single isomer, unassigned) [Example 330, 1-[7-(2,3-dimethylphenyl)-4,7-diazaspiro[2.5]octan-4-yl]-2-[3-(3-fluoro-4-hydroxy-piperidine-1-carbonyl)-5,6-dihydro-4H-cyclopenta[c]pyrazol-1-yl]ethanone]
7.6 nM | 980 nM | Cc1cccc(N2CCN(C(=O)Cn3nc(C(=O)N4CC[C@H](O)[C@H](F)C4)c4c3CC(C(F)F)C4)CC2)c1C (single isomer, unassigned) [Example 11]
7.66 nM | 1670 nM | Cc1cccc(N2CCN(C(=O)Cn3nc(C(=O)N4CCN5CCOC[C@H]5C4)c4c3CCC4)CC2)c1C [Example 173, 1-[4-(2,3-dimethylphenyl)piperazin-1-yl]-2-{3-[(9aR)-hexahydropyrazino[2,1-c][1,4]oxazine-8(1H)-carbonyl]-5,6-dihydrocyclopenta[c]pyrazol-1(4H)-yl}ethan-1-one]
4.08 nM | 625 nM | Cc1cccc(N2CCN(C(=O)Cn3nc(C(=O)N4CCC(O)C(F)C4)c4c3CCC4)C3(CC3)C2)c1C (single isomer, unassigned) [Example 396, 1-(7-(2,3-dimethylphenyl)-4,7-diazaspiro[2.5]octan-4-yl)-2-(3-(3-fluoro-4-hydroxypiperidine-1-carbonyl)-5,6-dihydrocyclopenta[c]pyrazol-1(4H)-yl)ethanone]
4.08 nM | 625 nM | Cc1cccc(N2CCN(C(=O)Cn3nc(C(=O)N4CCC(O)C(F)C4)c4c3CCC4)C3(CC3)C2)c1C (stereo not shown) [Example 325, 1-[7-(2,3-dimethylphenyl)-4,7-diazaspiro[2.5]octan-4-yl]-2-[3-(3-fluoro-4-hydroxy-piperidine-1-carbonyl)-5,6-dihydro-4H-cyclopenta[c]pyrazol-1-yl]ethanone]
3.75 nM | 480 nM | Cc1cccc(N2CCN(C(=O)Cn3nc(C(=O)N4CCN5CCOC[C@@H]5C4)c4c3CCC4)CC2)c1C [Example 174, 1-[4-(2,3-dimethylphenyl)piperazin-1-yl]-2-{3-[(9aS)-hexahydropyrazino[2,1-c][1,4]oxazine-8(1H)-carbonyl]-5,6-dihydrocyclopenta[c]pyrazol-1(4H)-yl}ethan-1-one]
1.31 nM | 347 nM | CC(=O)NC1CCN(C(=O)c2nn(CC(=O)N3CCN(c4ccc(F)c(C)c4C)CC34CC4)c3c2[C@@H]2C[C@@H]2C3)CC1 [Example 320, N-{1-[(3bR,4aR)-1-{2-[7-(4-fluoro-2,3-dimethylphenyl)-4,7-diazaspiro[2.5]octan-4-yl]-2-oxoethyl}-3b,4,4a,5-tetrahydro-1H-cyclopropa[3,4]cyclopenta[1,2-c]pyrazole-3-carbonyl]piperidin-4-yl}acetamide]
1.32 nM | 877 nM | Cc1cccc(N2CCN(C(=O)Cn3nc(C(=O)N4CCN(S(C)(=O)=O)C[C@@H]4C)c4c3CCC4)CC2)c1C [Example 124, 1-[4-(2,3-dimethylphenyl)piperazin-1-yl]-2-{3-[(2S)-2-methyl-4-(methylsulfonyl)piperazine-1-carbonyl]-5,6-dihydrocyclopenta[c]pyrazol-1(4H)-yl}ethan-1-one]
0.91 nM | 91 nM | Cc1cccc(N2CCN(C(=O)Cn3nc(C(=O)N4CCN(CCO)CC4)c4c3C[C@H]3C[C@@H]43)CC2)c1C [Example 247]
1.29 nM | 48 nM | Cc1cccc(N2CCN(C(=O)Cn3nc(C(=O)N4CCC(c5cn[nH]c5)CC4)c4c3CCC4)CC2)c1C [Example 142, 1-[4-(2,3-dimethylphenyl)piperazin-1-yl]-2-{3-[4-(1H-pyrazol-4-yl)piperidine-1-carbonyl]-5,6-dihydrocyclopenta[c]pyrazol-1(4H)-yl}ethan-1-one]

Reference: US12264134B2 (Merck Sharp & Dohme LLC, priority 2018, dated 2025)
